Laboratory results reported in US20250034185A1 (priority 2021, published 2025).
Entries after “also recorded” stand apart in the source; their conditions may differ.

Legend:
[1] = Pharmacokinetic study 1: P5P and P5P analog 16, IV and PO, rats; type: in vivo; conditions: rat
Description: Pharmacokinetic study 1 was carried out (see Example 98: P5P analog 16i: Pharmacokinetic study 1) to assess if P5P analog 16i was able to be converted to P5P and increase plasma P5P, to assess if P5P analog 16i was orally available, and to compare the ability of PO P5P analog 16i and PO P5P to increase plasma P5P.
(§1) In order to isolate the effects of the administered P5P analog 16i on pyridoxine (PL) and P5P (PLP) levels, the basal levels of both PL and P5P were subtracted from the measured concentrations. Baseline subtraction was accomplished by subtracting pre-dose concentrations of either PL or P5P from the subsequent values in the time course.
Formulation—Both P5P (pyridoxal-5-phosphate) and P5P analog 16 were formulated in phosphate buffered saline (PBS) as homogenous solutions on the day of dosing.
(§2) Animals and group—13 CD ♂ rats with an approx. weigh of ˜250 g were used. Animals were split into 4 groups+1 extra (n=3 for each group). Animals were allowed a 5-day acclimatization period in animal facility. The animal room environment was controlled (temperature 22 f 0.2° C.; relative humidity 55 f 25%; 12 hours light/dark cycle, and 12 air changes per hour). A standard certified commercial rodent chow was provided to the animals ad libitum. Procedures involving the care and use of animals in this study were reviewed and approved by the Institutional Animal Care and Use Committee (IACUC) prior to conduct. One day prior to dosing on D-1, Rats were divided in 4 groups (Table 7). Rats in Group 3 and 4 were fasted overnight (12-14 hours) with access to water.
On day 0, animals were identified, weighted, and dosed by intravenous (IV) injection or oral gavage (PO) as described in Table 7. Food tray were returned to Group 3 and 4, 2 hrs post dosing.
(§3) Blood was collected at indicated time points below for all groups: Pre-dose, 5′, 15′, 30′, 1 h, 2 h, 4 h, 6 h, 8 h, 24 h.
(§4) About 150 μL of blood was collected at indicated time points below using K2EDTA tubes. Blood was kept on ice until centrifugation at 4° C. at 6000 RCF for 10 min. Plasma was collected and kept on dry ice until transferred at −80° C.

[2] = Pharmacokinetic study 3: P5P analog 16vi and Compound II.I., IV and PO, rats; type: in vivo; conditions: rat
Description: […] (Example 100: P5P analog 16vi and compound II.I.: Pharmacokinetic study 3) to assess the effect of a P5P analog not encompassed by the compound of Formula I (Compound II.I.), amino acid modification (P5P analog 16vi) and compounds of formula 16iii, 16i and a racemic mixture of 16i.
as §1, with “administered Compound II.I. and” for “administered”, “16vi” for “16i”, “P5P” for “P5P (PLP)”
Formulation—Compound II.I. was formulated in 0.9% saline while P5P analog 16vi was formulated in 40% hydroxypropyl-β-cyclodextrin in water as a homogenous solution on the day of dosing.
as §2, with “9).” for “7).”
On day 0, animals were identified, weighted, and dosed by intravenous (IV) injection or oral gavage (PO) as described in Table 9. Food tray were returned to Group 3 and 4, 2 hrs post dosing.
as §3
About 150 μL of blood was collected at indicated time points below using K2EDTA tubes. Blood was kept on ice until centrifugation at 4° C. at 6000 RCF for 10 min. […]

[3] = Pharmacokinetic study 2: P5P analogs 16 and 16v, IV and PO, rats; type: in vivo; conditions: rat
Description: Pharmacokinetic study 2 was carried out (Example 99: P5P analog 16i: Pharmacokinetic study 2) to assess the effect of the P5P analog 16v compared to P5P analog 16i.
as §1, with “analogs” for “analog”, “16i and 16v” for “16i”, “P5P” for “P5P (PLP)”
Formulation—Both P5P analog 16 and P5P analog 16v were formulated in 40% hydroxypropyl-β-cyclodextrin in water as homogenous solutions on the day of dosing.
as §2, with “8).” for “7).”
On day 0, animals were identified, weighted, and dosed by intravenous (IV) injection or oral gavage (PO) as described in Table 8. Food tray were returned to Group 3 and 4, 2 hrs post dosing.
as §3, §4

[4] = Single ascending dose study of P5P analog 16, oral, rats; type: in vivo; conditions: single PO dose 10, 30, 100, 300 mg/kg, rat, observed to 24 hrs
Description: Single ascending dose studies were carried out (Example 97: P5P analog 16i: single ascending dose study) to assess the maximum tolerability of a P5P analog (compound of formula 16i) in rats under 4 different doses under one single administration via Per Os (P.O.—oral) route, and to inform the linearity of pharmacokinetics (PK) with multiple dosing.
as §1, with “compound of formula” for “P5P analog”
Formulation—P5P analog 16 was formulated in 1% methylcellulose in water on the day of dosing.
as §2, with “and group—17” for “and group—13”, “extra (n=4” for “extra (n=3”, “(Table 6). Animals were identified and bled for pre-dose blood.” for “(Table 7).”, “in all groups” for “in Group 3 and 4”, “access of” for “access to”
On day 0, animals in groups 1-2-3 were weighed, and dosed by oral gavage as described in Table 6. Each remaining dosing solutions were stirred (or slightly vortexed), a 50 ul sample were collected and placed in separate tube and both vials immediately frozen on dry ice. Food tray were returned to animals two hours post dosing.
Cage-side observation were done upon dosing, at the end of day, and 24 hrs post dosing (record adverse effect if observed). Animal were weighed again at 24 hrs post dosing.
Blood was collected at indicated time points for all groups at: Pre-dose, 15′, 30′, 1 h, 2 h, 4 h, 6 h, 8 h, 24 h.
as §4

plasma enzymes = conditions: Sprague Dawley, rat

Cc1ncc(COP(=O)(O)O)c(C=O)c1O [Compound P5P, pyridoxal-5-phosphate]
overall exposure of P5P ([1]; IV 1 mg/kg): approximately 2200 ng/ml*hr | time after which the dosed compound is no longer left/detectable in the plasma ([1]; IV 1 mg/kg): 4 h | total exposure of pyridoxal (above baseline values) ([1]; IV 1 mg/kg): 770 ng/ml*hr | plasma P5P Cmax ([1]; IV 1 mg/kg, PBS): 3373 ng/mL | oral bioavailability of P5P ([1]; PO 10 mg/kg vs IV 1 mg/kg): 0% | plasma pyridoxal Cmax ([1]; oral gavage 10 mg/kg): 3668 ng/mL | P5P detected in the plasma over the 24-hour assessment period ([1]; oral gavage 10 mg/kg, 10 mg/kg): no detectable P5P; also recorded: not detected

Cc1ncc(COP(=O)(N[C@@H](Cc2ccccc2)C(=O)OC(C)C)Oc2ccccc2)c(C=O)c1O (stereo partly drawn) [Compound 16vi, (2S)-Isopropyl 2-(((4-formyl-5-hydroxy-6-methylpyridin-3-yl)methoxy)(phenoxy)phosphorylamino)-3-phenylpropanoate]
oral bioavailability (detection in plasma after oral dosing) ([2]; dosed orally): did not demonstrate significant oral bioavailability; also recorded: nor P5P were detected in the plasma at any significant levels | Cmax ([2]; male, CD, plasma, po, orally 10 mg/kg, read-out: dosed compound Cmax in plasma): 1650 ng/mL | dosed compound exposure ([2]; orally 10 mg/kg): 1592 ng/ml*hr

CCC(CC)COC(=O)[C@H](C)NP(=O)(OCc1cnc(C)c(O)c1C=O)Oc1ccccc1 (stereo partly drawn) [Compound 16v, (2S)-2-Ethylbutyl 2-(((4-formyl-5-hydroxy-6-methylpyridin-3-yl)methoxy)(phenoxy)phosphorylamino)propanoate]
oral availability of the prodrug (crosses gastrointestinal wall, detectable in circulation) ([3]; dosed orally): orally bioavailable | Tmax ([3]; male, CD, plasma, IV 1 mg/kg, read-out: prodrug (P5P analog) time of Cmax): 6 min | plasma levels of P5P after oral dosing compared to P5P analog 16i ([3]; oral dosing): slightly greater amounts

Cc1ncc(COP(=O)(N[C@@H](C)C(=O)OC(C)C)Oc2ccccc2)c(C=O)c1O (mixture of isomers) [Compound 16, (2S)-Isopropyl 2-(((4-formyl-5-hydroxy-6-methylpyridin-3-yl)methoxy)(phenoxy)phosphorylamino)propanoate]
time after which the dosed compound is no longer left/detectable in the plasma ([1]; IV 1 mg/kg): 6 h | ability to increase plasma PLP compared to PLP itself ([1]; given PO, FIGS. 7 a-d): improved ability | prodrug (P5P analog) time of peak ([1]; oral 10 mg/kg): 0.5 hours | adverse reactions / clinical signs [4]: no adverse reactions

Cc1ncc(CO[P@@](=O)(N[C@@H](C)C(=O)OC(C)C)Oc2ccccc2)c(/C=N/C2CCCC2)c1O [Compound 16xxxvi, (S)-Isopropyl 2-((S)-((4-((E)-(cyclopentylimino)methyl)-5-hydroxy-6-methylpyridin-3-yl)methoxy)(phenoxy)phosphorylamino)propanoate]
P5P formed (plasma enzymes): 3.8 µM | relative P5P formed (plasma enzymes): 152.0%

Cc1ncc(COP(=O)(N[C@@H](C)C(=O)Oc2ccc(Cl)cc2)Oc2ccccc2)c(C=O)c1O (stereo partly drawn) [Compound 16xL, (2S)-4-Chlorophenyl 2-(((4-formyl-5-hydroxy-6-methylpyridin-3-yl)methoxy)(phenoxy)phosphorylamino)propanoate]
P5P formed (plasma enzymes): 3.6 µM | relative P5P formed (plasma enzymes): 171.4%

[2H]C([2H])([2H])c1ncc(C([2H])([2H])OP(=O)(N[C@@H](C)C(=O)OC(C)C)Oc2ccccc2)c(CO)c1O (some centres unmarked) [Compound 15xxxi]
P5P formed (plasma enzymes): 0.5 µM | relative P5P formed (plasma enzymes): 20.0%

Cc1ccc(OC(=O)[C@H](C)NP(=O)(OCc2cnc(C)c(O)c2CN)Oc2ccccc2)cc1 (stereo partly drawn) [Compound 14vii, (2S)-p-Tolyl 2-(((4-(aminomethyl)-5-hydroxy-6-methylpyridin-3-yl)methoxy)(phenoxy)phosphorylamino)propanoate]
P5P formed (plasma enzymes): 0.5 µM | relative P5P formed (plasma enzymes): 12.2%

Cc1ncc(COP(=O)(N[C@@H](C)C(=O)OCc2ccccc2)Oc2ccccc2)c(C=O)c1O (stereo partly drawn) [Compound 16ix, (2S)-Benzyl 2-(((4-formyl-5-hydroxy-6-methylpyridin-3-yl)methoxy)(phenoxy)phosphorylamino)propanoate]
P5P formed (plasma enzymes): 10.3 µM | relative P5P formed (plasma enzymes): 98.1%

Cc1ncc(COP(=O)(N[C@@H](C)C(=O)OC(C)C)Oc2ccccc2)c(CO)c1OC(=O)c1ccccc1 (stereo partly drawn) [Compound 15xvii, (2S)-Isopropyl 2-(((5-benzoyloxy-4-(hydroxymethyl)-6-methylpyridin-3-yl)methoxy)(phenoxy)phosphorylamino)propanoate]
P5P formed (plasma enzymes): 0.3 µM | relative P5P formed (plasma enzymes): 8.3%
